Measured values as given in patent publication EP0719267B1, “SECOND MESSENGER CELL SIGNALING INHIBITORS” (CELL THERAPEUTICS, INC., priority 1993, dated 1994).

Columns and labels:
[1] = system: normal human bone marrow stromal cells; experiment: Cytotoxicity in normal bone marrow stromal cells (vital dye uptake); format: cell-based; conditions: much higher concentrations than cytotoxic to tumor cells
Description: Human bone marrow stromal cells (1 x 10^4 cells/well) were plated in 96 well plates in McCoy's medium with serum and incubated overnight. Different dilutions of inventive compound no. 50 were added and viable cell counts made by vital dye uptake.

B16 melanoma cells = experiment: B16 melanoma in vivo study: bone marrow toxicity; design: species or system mice; conditions: 10 mg/kg QD or 20 mg/kg QOC
Description: Figures 41A, 41B and 41C illustrates the results from an in vivo study in mice where B16 melanoma cells were injected intravenously through a tail vein on day 0 and compound no. 50 was administered inter parenterally at 10 mg/kg QD or 20 mg/kg QOC, starting days 1-14. The mice were sacrificed on day 15 and the lungs were dissected and fixed in formalin. In addition bone marrow toxicity was evaluated by measuring neutrophil and platelet counts in the mice on day 15.

Lewis Lung Carcinoma = Lewis Lung Carcinoma (3LL) in vivo experiment; design: species or system BDFI mice
Description: Figure 43 reports results in an in vivo experiment showing that inventive compound no. […] BDFI mice were injected subcutaneously with 1 x 10^6 3LL cells on day 0 and then treated with inventive compound no. (20 mg/kg i.p.), cyclophosphamide (20 mg/kg) or vehicle on alternate days beginning on day 7. The animals were sacrificed on day 20 and the lung tumors dissected and weighed. Figure 43 illustrates that compound no. […] Figure 44A and 44B illustrates platelet and neutrophil counts, respectively, of the sacrificed mice in the immediately preceding assay. […] 50.

[2] = system: murine thymocyte proliferation; experiment: Thymocyte proliferation co-stimulated by ConA and IL-2 (tritiated thymidine); format: cell-based, Balb/C mice; conditions: for inhibition with delayed addition: 1 µM
[3] = system: vascular cell adhesion molecule (VCAM); experiment: VCAM expression on TNF-stimulated HUVEC (flow cytometry); format: cell-based, human
Source text: This example illustrates an investigation of inhibition of vascular cell adhesion molecule (VCAM) expression on HUVEC by compound no. 58. VCAM expression by endothelial cells is an early event in the pathogenesis of atherogenesis and multiple sclerosis, among other various autoimmune diseases. Figure 23 is a series of frequency histograms obtained in this exemplary assay. […] In the absence of TNF, VCAM expression on HUVEC was at a very low level. […] The average increase in cell fluorescence was approximately 10-fold. The bottom panel is a frequency histogram of TNF-stimulated cells in the presence of compound no 58. […] 58.
(§1) Assay results reported in figures 63A and 63B, illustrate that inventive compound no. […] HUVEC were stimulated with TNFα (20 ng/ml) for 5 hours and stained using fluorescent antibodies to ICAM-1 or VCAM-1. Cell surface expression was analyzed by flow cytometry. All values were normalized to the peak mean fluorescence of the positive control (=100%). Average levels of induction using TNFα- stimulation were 20-fold higher for ICAM-1 and over 50-fold higher for VCAM-1 from that of nonstimulated controls, as shown in figures 63 and 63B.
(§2) Figures 73A and 73B illustrate inhibition by inventive compound no. 58 of VCAM or ICAM expression, respectively, in HUVEC activated by TNF. Cells were stimulated for 8 hours in the presence or absence of inventive compounds and stained with fluorescent antibodies to VCAM or ICAM and analyzed by flow cytometry.

ICAM-1 = experiment: ICAM expression on TNF-stimulated HUVEC (flow cytometry); format: cell-based, human
Description: as §1, §2

murine splenocytes = experiment: Anti-CD3 priming followed by IL-2 restimulation of splenocytes; format: cell-based; conditions: 1 µM
Description: 53A. […] The cells were pulsed with ^3H-TdR for 4 hours and harvested and incorporation of ^3H-TdR determined.

[4] = system: human foreskin fibroblasts, HS68; experiment: Prostaglandin E2 release from IL-1α-stimulated fibroblasts; format: cell-based; conditions: 100 pg/ml IL-1α, 24 hours
Description: Figure 61 illustrates that inventive compound no. […] Cells were stimulated with 100 pg/ml IL-1α. Inventive compound no. 45 was added 1 hour prior to stimulation. Supernatants were harvested 24 hours later and levels of PGE2 were analyzed by commercial immunoassay. The results are reported in figure 61 and confirm no effect on PGE2 release.

Balb/3T3 cells = experiment: Cytotoxicity to PDGF-stimulated Balb/3T3 cells (BCECF); format: cell-based; conditions: fig. 66B
Description: LD50 values were determined using a cytotoxicity assay, as in Example 32. In these assays, Balb/3T3 cells, stimulated with PDGF and treated with one of the above inventive compounds in a manner identical to the tritiated thymidine procedure above, were incubated instead with a viable dye BCECF, a fluorescent dye. Fluorescence was measured using a fluorescent plate reader.

human TNFα = experiment: Whole blood ex vivo assay of TNF release (ELISA); format: cell-based; conditions: mouse TNFα and human IL-1α, 6 hours
Description: Figure 74 illustrates that inventive compound no. […] 58 using a human whole blood ex vivo assay. In this assay, human whole blood was stimulated with mouse TNFα and human IL-1α with or without various concentrations of inventive compound no. 58. After 6 hours, the plasma was analyzed for human TNFα levels using a commercial ELISA.

[5] = 20 mg/kg i.p. alternate days from day 7, day 20

For `CCCCCCCCCCCCNCC(O)CCCCCCCCCn1c(=O)c2c(ncn2C)n(C)c1=O` (stereo not shown) [compound no. 50, 1-(11-Dodecylamino-10-hydroxyundecyl)-3,7-dmethylxanthine], the cytotoxic activity [1] was “lacks cytotoxic activity in normal human bone marrow stromal cells”, the “neutrophil and platelet counts” value (B16 melanoma cells; day 15) was “increased counts over non-treated control animals” and the bone marrow toxicity (B16 melanoma cells; days 1-14, day 15) was “not toxic to the bone marrow”. For the same compound, the “lung tumor weight compared with cyclophosphamide (20 mg/kg)” value (Lewis Lung Carcinoma; [5]) was “superior results over an existing cancer chemotherapeutic agent”, the tumor growth (Lewis Lung Carcinoma; [5]) was “can arrest growth of Lewis Lung Carcinoma in mice” and the “platelet and neutrophil counts” value (Lewis Lung Carcinoma; 20 mg/kg i.p., sacrificed mice) was “not altered from vehicle”.
In the case of `CCCCCCCCNCC(O)CCCCCCCCCn1c(=O)c2c(ncn2C)n(C)c1=O` (stereo not shown) [compound no. 45], the “inhibition with delayed addition” value ([2]; added 72 and 92 hours after IL-2) is reported as “significant inhibition remained even at 72 and 92 hours following addition of IL-2”, the “inhibition with delayed addition” value ([2]; added 24 hours after IL-2) is reported as “maximally inhibits thymocyte proliferation even when added 24 hours following the IL-2 stimulation” and the IC50 ([2]; Mus musculus, Thymocyte, Con A (0.25 µg/ml) and IL-2 (20 ng/ml), 96 hours) is reported as roughly 350 nM. For the same compound, the “VCAM-1 cell surface expression” value ([3]; TNFα (20 ng/ml), 5 hours) was “inhibited adhesion receptor expression on HUVEC”, the “ICAM-1 cell surface expression” value (ICAM-1; TNFα (20 ng/ml), 5 hours) was “inhibited adhesion receptor expression on HUVEC” and the “proliferation of anti-CD3 primed splenocytes, compound present with IL-2” value (murine splenocytes) was “proliferation was inhibited”. For the same compound, the “response to IL-2 after compound present during anti-CD3 incubation” value (murine splenocytes) was “did not block the splenocyte's ability to respond to IL-2” and the “prostaglandin E2 release” value [4] was “did not have an effect on prostaglandin E2 release”.
With `COc1cc(CNCC(O)CCCCCCCCCn2c(=O)c3c(ncn3C)n(C)c2=O)cc(OC)c1OC` (stereo not shown) [compound no. 58, 1-[11-(3,4,5-Trimethoxybenzylamino)-10-hydroxyundecyl]-3,7-dimethylxanthine] the cytotoxicity (Balb/3T3 cells) was “not cytotoxic to Balb/3T3 cells”, the “factor of reduction of mean fluorescence (VCAM expression)” value ([3]; TNF 6 hours, versus TNF-stimulated cells without compound) was 8 and the VCAM expression ([3]; TNF, 8 hours) was “inhibition”. For the same compound, the ICAM expression (ICAM-1; TNF, 8 hours) was “inhibition” and the TNF release (human TNFα) was “inhibited TNF release”.
